Test results: patent publication US20080064088A1, “DEVICES AND METHODS FOR PHARMACOKINETIC-BASED CELL CULTURE SYSTEM” (priority 2006, published 2008)
Entries after “also recorded” stand apart in the source; their conditions may differ.

Tests used:
HCT-116 cells = assay: Traditional in vitro cell culture assay, HCT-116 on poly-lysine treated glass coverslips; assay type: cell-based, human; conditions: for cytotoxicity to HCT-116 cells, traditional cell culture assay: 48 hr incubation
Experimental: (§1) FIG. 16 Tegafur dose response. Chips were seeded with HepG2-C3A cells in the liver compartment and HCT-116 colon cancer cells in the target tissues compartment. The chips were treated with indicated concentrations of tegafur for 24 hours. The first graph (FIG. 16A) is a plot of percentage dead cells vs. tegafur or 5-FU concentration after 24 hours of re-circulation on the chip. The second graph (FIG. 16B) is a similar dose response using a traditional in vitro cell culture assay with HCT 116 cells using a 48 hour exposure. HCT-116 cells were seeded on poly-lysine treated glass coverslips and exposed to either tegafur or 5-FU at the indicated concentrations. After a 48 hr incubation, coverslips were treated as described above and the percentage of cell death was determined.
To measure the cytotoxic effects of tegafur against colon cancer cells, the microscale chip was prepared with HepG2-C3A cells in the liver compartment and HCT-116 human colon cancer cells in the target tissue compartment. Tegafur was added to the re-circulating medium at various concentrations for 24 hours and the cells labeled with Hoechst 33342, a membrane permeable DNA dye, and ethidium homodimer, a membrane impermeable DNA dye (see Methods Section).

[1] = test system: HCT-116 human colon cancer cells; conditions: for cell death of HCT-116 cells, chip seeded with HCT-116 cells only: no cells in the liver compartment, 24 hours
Experimental: as §1, with “Chips were seeded with HepG2-C3A cells in the liver compartment and HCT-116 colon cancer cells in the target tissues compartment.” left out
(§2) LIVE/DEAD stain is a two-component stain consisting of calcein AM and ethidium homodimer. Living cells actively hydrolyze the acetoxymethyl ester (AM) moiety of calcein AM to produce bright green fluorescence of calcein. In contrast, cells that have compromised membrane integrity allow the normally membrane impermeant ethidium homodimer to stain the nucleus of dead or dying cells fluorescent red. The cell permeant nuclear stain, Hoechst 33342 acts as a general stain for all cells. Together with the appropriate filter sets, living cells fluoresce green, dying or dead cells red, and all cells are quantified by a blue nuclear fluorescence. For experiments described herein, trypan blue was used at 0.2% (w/v), calcein AM at 1:20,000, propidium iodide at 1:5,000, and Hoechst 33342 at 10 μg/ml. Cells were visualized with a M2Bio stereofluorescence microscope (Zeiss). All experiments were repeated at least three times and measurements done in triplicate.
[…] Tegafur was added to the re-circulating medium at various concentrations for 24 hours and the cells labeled with Hoechst 33342, a membrane permeable DNA dye, and ethidium homodimer, a membrane impermeable DNA dye (see Methods Section).

HepG2/C3A cells [2] = assay: LIVE/DEAD assay on poly-D-lysine treated glass coverslips; assay type: cell-based, human; conditions: 1 μM, 24 hours
Excerpt: as §2
The LIVE/DEAD assay was optimized (see Methods section) using cells grown on glass coverslips. Briefly, HepG2/C3A cells were seeded onto poly-D-lysine treated glass coverslips and treated with and without 1 μM staurosporine for 24 hours. […]

HCT116 cells [3] = assay: APOPTAG (TUNEL) apoptosis assay on microscale chip system; assay type: cell-based, human; conditions: 1 μM, 24 hour exposure, compared to untreated controls
Excerpt: (§3) In contrast to annexin V labeling, the APOPTAG™ kit (Intergen Co., MA) uses terminal deoxynucleotidyl transferase to label free 3′-OH DNA termini exposed during apoptotic DNA degradation and visualization using immunofluorescence (Li, X., Traganos, F., Melamed, M. R., and Darzynkiewicz, Z. (1995). Single-step procedure for labeling DNA strand breaks with flourescein-or BODIPY-conjugated deoxynucleotides: detection of apoptosis and bromodeoxyuridine incorporation. Cytometry 20, 172-180). Although this method is highly specific for apoptosis, the procedure cannot be done on-chip due to the fixation and incubation steps. Briefly, microscale chips were run under specified experimental conditions, the cell chips were removed from their housing units, fixed in 1% paraformaldehyde and processed with the APOPTAG™ kit using the manufacturer's protocol.
(§4) Two different assays to detect apoptosis were investigated. The first assay was the immunofluorescence-based terminal deoxynucleotidyl transferase BrdU nick end labeling (TUNEL) technique available in kit form as APOPTAG™ (Intergen Co., MA) (see Methods section). The assay was first optimized using cells grown on glass coverslips. Briefly, HepG2/C3A cells were seeded onto poly-D-lysine treated glass coverslips and treated with and without staurosporine. Coverslips were processed as described (see Methods section). […]

[4] = test system: HepG2/C3A cells in the liver compartment and HCT116 cells in the target tissues compartment; assay: Annexin V-FITC apoptosis assay on microscale chip system; assay type: cell-based, human; conditions: 1 μM, 6-hour treatment, compared to untreated control cell chips
Experimental: With the microscale chip, annexin V-FITC labeling was visualized directly on-chin, by first flushing the system with PBS, then recirculating annexin V-FITC (10 μg/ml in annexin V binding buffer, Clontech) for 30 min. Cells were then visualized directly using a FITC filter set.
The annexin V-FITC was used to detect apoptosis in the microscale chip system as described in the Methods section. Briefly, the microscale chip cell chips were seeded with HepG2/C3A cells in the liver compartment and HCT116 cells in the target tissues compartment. Cell chips were loaded onto the microscale chip system and treated with and without 1 μM staurosporine as described above. After a 6-hour incubation, the re-circulating medium was switched to PBS containing Annexin V-FITC and Hoechst 33342 and allowed to flow through the system for 30 minutes. Cell chips were removed from the acrylic housing and visualized under a fluorescent microscope. Cells were visualized under a fluorescent microscope and fluorescent images of identical fields were obtained using the appropriate filter sets.

HCT116 cells [5] = assay: LIVE/DEAD cytotoxicity assay on microscale chip system; assay type: cell-based, human; conditions: 1 μM, 24 hour treatment, compared to untreated control cell chips
Excerpt: as §2
Two different assays to detect apoptosis were investigated. The first assay was the immunofluorescence-based terminal deoxynucleotidyl transferase BrdU nick end labeling (TUNEL) technique available in kit form as APOPTAG™ (Intergen Co., MA) (see Methods section).

HepG2/C3A cells [6] = assay: APOPTAG (TUNEL) apoptosis assay on glass coverslips; assay type: cell-based, human; conditions: 1 μM, 24-hour incubation, compared to untreated controls
Excerpt: as §3, §4

[7] = test system: HT29 human colon cancer cells; assay: Microscale chip, HepG2-C3A liver compartment and HT29 target tissue compartment, live/dead fluorescence; assay type: cell-based; conditions: 24 hours; for efficacy against HT-29 colon cancer cells (mutant p53) in the chip: chip with HepG2-C3A liver compartment
Excerpt: as §2

Structure (SMILES): O=c1[nH]cc(F)c(=O)[nH]1 [5-FU, 5-fluorouracil]
- exposure at which cytotoxicity was observed, traditional cell culture assay (HCT-116 cells): 48 h
- cytotoxicity to HCT-116 cells, traditional cell culture assay (HCT-116 cells): triggered cell death
- cell death of HCT-116 cells, chip seeded with HCT-116 cells only [1]: caused substantial cell death

Structure (SMILES): CN[C@@H]1C[C@H]2O[C@@](C)([C@@H]1OC)n1c3ccccc3c3c4c(c5c6ccccc6n2c5c31)C(=O)NC4 [Staurosporine]
- cell death of HepG2/C3A cells (LIVE/DEAD) (HepG2/C3A cells [2]): clearly cause cell death
- apoptosis of HCT116 cells (APOPTAG) on chip (HCT116 cells [3]): significant apoptosis (or cytotoxicity)
- apoptosis (annexin V-FITC) on chip [4]: significant apoptosis
- cell death of HCT116 cells (LIVE/DEAD) on chip (HCT116 cells [5]): Significant cell death; also recorded: significant apoptosis (or cytotoxicity)
- apoptosis of HepG2/C3A cells (APOPTAG) (HepG2/C3A cells [6]): significant apoptosis

Structure (SMILES): CC1=C(CC(=O)O)c2cc(F)ccc2/C1=C\c1ccc([S+](C)[O-])cc1 (stereo not drawn) [Sulindac, sulindac sulfoxide]
- cell death of HT29 cells in the chip ([7]; One hundred micromoles in re-circulating medium, absence of the HepG2-C3A liver cells): minimal levels of cell death
- efficacy against HT-29 colon cancer cells (mutant p53) in the chip [7]: effective

Structure (SMILES): O=c1[nH]c(=O)n(C2CCCO2)cc1F (stereo not drawn) [Tegafur, 5-fluoro-1-(2-tetrahydrofuryl)-2,4(1H,3H)-pyrimidinedione]
- efficacy against HT-29 colon cancer cells (mutant p53) in the chip [7]: ineffective
- cytotoxicity to HCT-116 cells, traditional cell culture assay (HCT-116 cells): ineffective
- cytotoxicity to HCT-116 cells in the microscale chip [1]: cytotoxic to HCT-116 cells in a dose-dependent fashion
- exposure at which cytotoxicity was observed, microscale chip [1]: 24 h
- cell death of HCT-116 cells, chip seeded with HCT-116 cells only [1]: did not cause significant cell death
